Test results: ChEMBL document CHEMBL1139035, “Evaluation of the antioxidant properties of diarylamines in the benzo[b]thiophene series by free radical scavenging activity and reducing power” (Bioorg Med Chem Lett, 2006)

Tests used:
Type in all cases: functional
[1] = test system: Radical scavenging activity; test: DPPH radical scavenging activity at 0.125 g/L
[2] = test system: Radical scavenging activity; test: DPPH radical scavenging activity at 0.250 g/L
[3] = test system: Radical scavenging activity; test: DPPH radical scavenging activity at 0.0312 g/L
[4] = test system: Radical scavenging activity; test: DPPH radical scavenging activity at 0.0625 g/L
[5] = test system: Radical scavenging activity; test: DPPH radical scavenging activity at 0.0156 g/L

## COc1ccc(Nc2c(C(=O)O)sc3ccccc23)c(OC)c1
[1]
  Activity: 63%
[2]
  Activity: 84%
[3]
  Activity: 30.7%
[4]
  Activity: 44.7%
[5]
  Activity: 8.9%

## COc1ccc(O)c(C(C)(C)C)c1.COc1ccc(O)cc1C(C)(C)C
[1]
  Activity: 83%
[2]
  Activity: 84%
[3]
  Activity: 63%
[4]
  Activity: 75.7%
[5]
  Activity: 41.2%

## Cc1cc2c(C)c(C)sc2cc1Nc1ccccc1F
[1]
  Activity: 0.54%
[2]
  Activity: 1.21%
[3]
  Activity: 0%
[4]
  Activity: 0.52%
[5]
  Activity: 0%

## CCOC(=O)c1sc2ccccc2c1Nc1ccc(OC)cc1
[1]
  Activity: 0.74%
[2]
  Activity: 0.78%
[3]
  Activity: 0%
[4]
  Activity: 0.4%
[5]
  Activity: 0%

## Cc1cc2c(C)c(C)sc2cc1Nc1ccc(F)cc1
[1]
  Activity: 0.4%
[2]
  Activity: 2.8%
[3]
  Activity: 0%
[4]
  Activity: 0%
[5]
  Activity: 0%

## CCOC(=O)c1sc2ccccc2c1Nc1ccc(F)cc1
[1]
  Activity: 0.86%
[2]
  Activity: 0.9%
[3]
  Activity: 0.54%
[4]
  Activity: 0.72%
[5]
  Activity: 0%

## CCOC(=O)c1sc2ccccc2c1Nc1ccc(OC)cc1OC
[1]
  Activity: 64.7%
[2]
  Activity: 74.8%
[3]
  Activity: 34.8%
[4]
  Activity: 51.1%
[5]
  Activity: 20.8%

## COc1ccc(Nc2cc3sc(C)c(C)c3cc2C)cc1OC
[1]
  Activity: 75%
[2]
  Activity: 75.4%
[3]
  Activity: 65.3%
[4]
  Activity: 74.6%
[5]
  Activity: 49%

## COc1ccc(Nc2cc3sc(C)c(C)c3cc2C)cc1
[1]
  Activity: 76.8%
[2]
  Activity: 77%
[3]
  Activity: 68.5%
[4]
  Activity: 76.6%
[5]
  Activity: 38.3%

## Fc1ccc(Nc2csc3ccccc23)cc1
[1]
  Activity: 83.4%
[2]
  Activity: 85%
[3]
  Activity: 44.7%
[4]
  Activity: 67.7%
[5]
  Activity: 26.8%

## Cc1cc(C(C)(C)C)c(O)c(C(C)(C)C)c1
[1]
  Activity: 82.3%
[2]
  Activity: 83%
[3]
  Activity: 38.3%
[4]
  Activity: 60%
[5]
  Activity: 28%
